{"source": "ChEMBL document CHEMBL1201862", "about": "“PubChem BioAssay data set” (2004)", "experiment_in_all_cases": "inhibition of tumour cell growth, NCI panel, 48 h", "key": {"[1]": {"test_system": "786-0"}, "[2]": {"test_system": "A498"}, "[3]": {"test_system": "A549"}, "[4]": {"test_system": "ACHN"}, "[5]": {"test_system": "CAKI-1"}, "[6]": {"test_system": "CCRF-CEM"}, "[7]": {"test_system": "COLO 205"}, "[8]": {"test_system": "DMS-114"}, "[9]": {"test_system": "EKVX"}, "[10]": {"test_system": "HCC 2998"}, "[11]": {"test_system": "HCT-116"}, "[12]": {"test_system": "HCT-15"}, "[13]": {"test_system": "HL-60"}, "[14]": {"test_system": "HOP-18"}, "[15]": {"test_system": "HOP-62"}, "[16]": {"test_system": "HOP-92"}, "[17]": {"test_system": "HT-29"}, "[18]": {"test_system": "IGROV-1"}, "[19]": {"test_system": "K562"}, "[20]": {"test_system": "KM-20L2"}, "[21]": {"test_system": "KM12"}, "[22]": {"test_system": "LOX IMVI"}, "[23]": {"test_system": "LXFL 529"}, "[24]": {"test_system": "M14"}, "[25]": {"test_system": "M19-MEL"}, "[26]": {"test_system": "MOLT-4"}, "[27]": {"test_system": "Malme-3M"}, "[28]": {"test_system": "NCI-H226"}, "[29]": {"test_system": "NCI-H460"}, "[30]": {"test_system": "OVCAR-3"}, "[31]": {"test_system": "OVCAR-4"}, "[32]": {"test_system": "OVCAR-5"}, "[33]": {"test_system": "OVCAR-8"}, "[34]": {"test_system": "RPMI-8226"}, "[35]": {"test_system": "RXF 393"}, "[36]": {"test_system": "SF-268"}, "[37]": {"test_system": "SF-295"}, "[38]": {"test_system": "SF-539"}, "[39]": {"test_system": "SK-MEL-28"}, "[40]": {"test_system": "SK-MEL-2"}, "[41]": {"test_system": "SN12C"}, "[42]": {"test_system": "SNB-19"}, "[43]": {"test_system": "SNB-75"}, "[44]": {"test_system": "SNB-78"}, "[45]": {"test_system": "SR"}, "[46]": {"test_system": "SW-620"}, "[47]": {"test_system": "TK-10"}, "[48]": {"test_system": "U-251"}, "[49]": {"test_system": "UACC-62"}, "[50]": {"test_system": "UO-31"}, "[51]": {"test_system": "XF498"}, "[52]": {"test_system": "DLD-1"}, "[53]": {"test_system": "DMS-273"}, "[54]": {"test_system": "NCI-H23"}, "[55]": {"test_system": "NCI-H522"}, "[56]": {"test_system": "SK-MEL-5"}, "[57]": {"test_system": "SK-OV-3"}, "[58]": {"test_system": "UACC-257"}}, "note": "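Exposure lasted 48 hours, with cells grown in 96-well plates and compounds tested at five concentrations. Here, GI50 denotes the concentration required for 50% inhibition of growth.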 Calls of active or inactive are those of the source. Rule as the data show it: active = GI50 up to about 1.1 µM and inactive = higher.", "data": [{"smiles": "CCC12C=CCN3CCC4(c5cc(C6(C(=O)OC)CCCCCc7c6[nH]c6ccccc76)c(OC)cc5N(C)C4C(O)(C(=O)OC)C1OC(C)=O)C32", "note": "(stereo not drawn)", "values": [{"measurement": "GI50", "setting": "[1]", "value": "2.29 µM (inactive)"}, {"measurement": "GI50", "setting": "[2]", "value": "2.4 µM (inactive)"}, {"measurement": "GI50", "setting": "[3]", "value": "3.02 µM (inactive)"}, {"measurement": "GI50", "setting": "[4]", "value": "1.61 µM (inactive)"}, {"measurement": "GI50", "setting": "[5]", "value": "2.7 µM (inactive)"}, {"measurement": "GI50", "setting": "[6]", "value": "1.97 µM (inactive)"}, {"measurement": "GI50", "setting": "[7]", "value": "2.93 µM (inactive)"}, {"measurement": "GI50", "setting": "[8]", "value": "2.38 µM (inactive)"}, {"measurement": "GI50", "setting": "[9]", "value": "3.57 µM (inactive)"}, {"measurement": "GI50", "setting": "[10]", "value": "2.04 µM (inactive)"}, {"measurement": "GI50", "setting": "[11]", "value": "2.9 µM (inactive)"}, {"measurement": "GI50", "setting": "[12]", "value": 2100, "unit": "nM"}, {"measurement": "GI50", "setting": "[13]", "value": "2.29 µM (inactive)"}, {"measurement": "GI50", "setting": "[14]", "value": "2.34 µM (inactive)"}, {"measurement": "GI50", "setting": "[15]", "value": "3.72 µM (inactive)"}, {"measurement": "GI50", "setting": "[16]", "value": "2.26 µM (inactive)"}, {"measurement": "GI50", "setting": "[17]", "value": "0.562 µM (active)"}, {"measurement": "GI50", "setting": "[18]", "value": "2.16 µM (inactive)"}, {"measurement": "GI50", "setting": "[19]", "value": "2.82 µM (inactive)"}, {"measurement": "GI50", "setting": "[20]", "value": "2.03 µM (inactive)"}, {"measurement": "GI50", "setting": "[21]", "value": "2.55 µM (inactive)"}, {"measurement": "GI50", "setting": "[22]", "value": "1.61 µM (inactive)"}, {"measurement": "GI50", "setting": "[23]", "value": "1.84 µM (inactive)"}, {"measurement": "GI50", "setting": "[24]", "value": "2.64 µM (inactive)"}, {"measurement": "GI50", "setting": "[25]", "value": "2.51 µM (inactive)"}, {"measurement": "GI50", "setting": "[26]", "value": "2.14 µM (inactive)"}, {"measurement": "GI50", "setting": "[27]", "value": "1.87 µM (inactive)"}, {"measurement": "GI50", "setting": "[28]", "value": "2.64 µM (inactive)"}, {"measurement": "GI50", "setting": "[29]", "value": "2.31 µM (inactive)"}, {"measurement": "GI50", "setting": "[30]", "value": "3.83 µM (inactive)"}, {"measurement": "GI50", "setting": "[31]", "value": "2.95 µM (inactive)"}, {"measurement": "GI50", "setting": "[32]", "value": "1.9 µM (inactive)"}, {"measurement": "GI50", "setting": "[33]", "value": "3.06 µM (inactive)"}, {"measurement": "GI50", "setting": "[34]", "value": "2.47 µM (inactive)"}, {"measurement": "GI50", "setting": "[35]", "value": "1.64 µM (inactive)"}, {"measurement": "GI50", "setting": "[36]", "value": "2.95 µM (inactive)"}, {"measurement": "GI50", "setting": "[37]", "value": "1.91 µM (inactive)"}, {"measurement": "GI50", "setting": "[38]", "value": "2.25 µM (inactive)"}, {"measurement": "GI50", "setting": "[39]", "value": "2.23 µM (inactive)"}, {"measurement": "GI50", "setting": "[40]", "value": "1.74 µM (inactive)"}, {"measurement": "GI50", "setting": "[41]", "value": "3.63 µM (inactive)"}, {"measurement": "GI50", "setting": "[42]", "value": "3.15 µM (inactive)"}, {"measurement": "GI50", "setting": "[43]", "value": "2.3 µM (inactive)"}, {"measurement": "GI50", "setting": "[44]", "value": "2.78 µM (inactive)"}, {"measurement": "GI50", "setting": "[45]", "value": "2.54 µM (inactive)"}, {"measurement": "GI50", "setting": "[46]", "value": "3.3 µM (inactive)"}, {"measurement": "GI50", "setting": "[47]", "value": "2.39 µM (inactive)"}, {"measurement": "GI50", "setting": "[48]", "value": "2.08 µM (inactive)"}, {"measurement": "GI50", "setting": "[49]", "value": "1.64 µM (inactive)"}, {"measurement": "GI50", "setting": "[50]", "value": "2 µM (inactive)"}, {"measurement": "GI50", "setting": "[51]", "value": "2.33 µM (inactive)"}]}, {"smiles": "COC1(OC)CC2C(=O)N(Cc3ccccc3)C1CC2S(=O)(=O)c1ccccc1", "note": "(stereo not drawn)", "values": [{"measurement": "GI50", "setting": "[1]", "value": "> 100 µM (inactive)"}, {"measurement": "GI50", "setting": "[3]", "value": "> 100 µM (inactive)"}, {"measurement": "GI50", "setting": "[4]", "value": "> 100 µM (inactive)"}, {"measurement": "GI50", "setting": "[6]", "value": "> 100 µM (inactive)"}, {"measurement": "GI50", "setting": "[7]", "value": "> 100 µM (inactive)"}, {"measurement": "GI50", "setting": "[52]", "value": "> 100 µM (inactive)"}, {"measurement": "GI50", "setting": "[8]", "value": "> 100 µM (inactive)"}, {"measurement": "GI50", "setting": "[53]", "value": "> 100 µM (inactive)"}, {"measurement": "GI50", "setting": "[9]", "value": "> 100 µM (inactive)"}, {"measurement": "GI50", "setting": "[11]", "value": "> 100 µM (inactive)"}, {"measurement": "GI50", "setting": "[12]", "value": "> 100000", "unit": "nM"}, {"measurement": "GI50", "setting": "[13]", "value": "> 100 µM (inactive)"}, {"measurement": "GI50", "setting": "[14]", "value": "> 100 µM (inactive)"}, {"measurement": "GI50", "setting": "[15]", "value": "> 100 µM (inactive)"}, {"measurement": "GI50", "setting": "[17]", "value": "> 100 µM (inactive)"}, {"measurement": "GI50", "setting": "[18]", "value": "> 100 µM (inactive)"}, {"measurement": "GI50", "setting": "[19]", "value": "> 100 µM (inactive)"}, {"measurement": "GI50", "setting": "[21]", "value": "> 100 µM (inactive)"}, {"measurement": "GI50", "setting": "[22]", "value": "> 100 µM (inactive)"}, {"measurement": "GI50", "setting": "[24]", "value": "> 100 µM (inactive)"}, {"measurement": "GI50", "setting": "[25]", "value": "> 100 µM (inactive)"}, {"measurement": "GI50", "setting": "[26]", "value": "> 100 µM (inactive)"}, {"measurement": "GI50", "setting": "[27]", "value": "> 100 µM (inactive)"}, {"measurement": "GI50", "setting": "[28]", "value": "> 100 µM (inactive)"}, {"measurement": "GI50", "setting": "[54]", "value": "> 100 µM (inactive)"}, {"measurement": "GI50", "setting": "[29]", "value": "> 100 µM (inactive)"}, {"measurement": "GI50", "setting": "[55]", "value": "> 100 µM (inactive)"}, {"measurement": "GI50", "setting": "[30]", "value": "> 100 µM (inactive)"}, {"measurement": "GI50", "setting": "[33]", "value": "> 100 µM (inactive)"}, {"measurement": "GI50", "setting": "[34]", "value": "> 100 µM (inactive)"}, {"measurement": "GI50", "setting": "[35]", "value": "> 100 µM (inactive)"}, {"measurement": "GI50", "setting": "[37]", "value": "> 100 µM (inactive)"}, {"measurement": "GI50", "setting": "[38]", "value": "> 100 µM (inactive)"}, {"measurement": "GI50", "setting": "[39]", "value": "> 100 µM (inactive)"}, {"measurement": "GI50", "setting": "[40]", "value": "> 100 µM (inactive)"}, {"measurement": "GI50", "setting": "[56]", "value": "> 100 µM (inactive)"}, {"measurement": "GI50", "setting": "[57]", "value": "> 100 µM (inactive)"}, {"measurement": "GI50", "setting": "[41]", "value": "> 100 µM (inactive)"}, {"measurement": "GI50", "setting": "[42]", "value": "> 100 µM (inactive)"}, {"measurement": "GI50", "setting": "[43]", "value": "> 100 µM (inactive)"}, {"measurement": "GI50", "setting": "[46]", "value": "> 100 µM (inactive)"}, {"measurement": "GI50", "setting": "[47]", "value": "> 100 µM (inactive)"}, {"measurement": "GI50", "setting": "[48]", "value": "> 100 µM (inactive)"}, {"measurement": "GI50", "setting": "[58]", "value": "> 100 µM (inactive)"}, {"measurement": "GI50", "setting": "[49]", "value": "> 100 µM (inactive)"}, {"measurement": "GI50", "setting": "[50]", "value": "62.1 µM (inactive)"}, {"measurement": "GI50", "setting": "[51]", "value": "33.4 µM (inactive)"}]}]}
